For 9 compounds, Activity and EC50 results are on record in ChEMBL document CHEMBL1159331, “Cytotoxic prenylated xanthones and the unusual compounds anthraquinobenzophenones from Cratoxylum sumatranum” (J Nat Prod, 2002).

SMILES strings stand for the structures. In brackets after ≈: the same amount, converted by molar mass. Activity calls are given as the source filed them. No cut-off for these calls is given here.

The first assay relates to P388. Put plainly: In vivo antitumor activity against mouse P388 cells at 75 mg/kg, ip. Details: dose 75 mg/kg. It is filed as functional, organism-based.
With `COc1cc(OC)c2oc3cc(O)c(CC=C(C)C)c(O)c3c(=O)c2c1CC=C(C)C` [CRATOXYARBORENONE C], the outcome was inactive.

The test system of the next assay is KB. Put plainly: Cytotoxicity against human KB cells by MTT assay. It counts as functional, cell-based. For orientation: Formazan colour is commonly taken as a measure of viable cells.
Regarding `COc1cc2c(c(O)c1C(CC(C)C)c1c(OC/C=C(\C)CCC=C(C)C)cc(O)c(C(=O)c3ccccc3)c1O)C(=O)c1c(O)cc(C)cc1C2=O` (stereo not given), the outcome was inactive.
Same read-out and setting: the result for `COc1cc2c(c(O)c1C(CC(C)CCC=C(C)C)c1c(OC/C=C(\C)CCC=C(C)C)cc(O)c(C(=O)c3ccccc3)c1O)C(=O)c1c(O)cc(C)cc1C2=O` (stereo not given) reads “inactive”.
The term EC50 denotes the midpoint of the concentration-response curve. Low readings indicate a more potent agent, high ones a less potent agent. In turn, `CC(C)=CCC/C(C)=C/Cc1c(O)cc(O)c2oc3cc(O)c(CC=C(C)C)c(O)c3c(=O)c12` [CRATOXYARBORENONE A] came in with an EC50 of 4.3 mg/L (≈ 9.26 µM).
Consider `CC(C)=CCc1c(O)cc2oc3c(O)cc(O)c(CC=C(C)C)c3c(=O)c2c1O` [CRATOXYARBORENONE B], for which the EC50 is 1 mg/L (≈ 2.52 µM).
For `COc1cc(OC)c2oc3cc(O)c(CC=C(C)C)c(O)c3c(=O)c2c1CC=C(C)C` [CRATOXYARBORENONE C], the EC50 was found to be 1.5 mg/L (≈ 3.53 µM).
On the same count and under the same terms, for `C=C(C)C1Cc2c(cc3oc4c(O)c(O)c(O)c(CC=C(C)C)c4c(=O)c3c2O)O1` (stereo not given) [CRATOXYARBORENONE D] the value was 1.7 mg/L (≈ 4.14 µM); for `COc1c(O)cc2c(=O)c3c(O)cc(O)c(CC=C(C)C)c3oc2c1CC=C(C)C` [CRATOXYARBORENONE E], 4.3 mg/L (≈ 10.5 µM).
Still for that read-out and setting: the result for `COc1ccc(O)c2c(=O)c3ccc(O)cc3oc12` [CRATOXYARBORENONE F] reads 4.1 mg/L (≈ 15.9 µM); that for `COc1cc2cc3c(c(O)c2c2c1C=CC(C)(C)O2)C(=O)CC(C)(O)C3` (stereo not given) [VISMIONE B], 1.3 mg/L (≈ 3.67 µM).
